Counter-ions that a name gives are not always drawn.
Legend:
[1] = tested on: ketone bodies (β-hydroxybutyrate) in blood; assay: Antiketogenic activity in fasted rats (blood β-hydroxybutyrate); type: in vivo, rat (male Sprague-Dawley); conditions: % of control rats; 50 mg/kg oral, 4 hours after dosing, 20 h fasted, n = 5
Method: Antiketogenic activities of derivatives of β-amino-γ-trimethylammonio-butyrate were measured as follows: […] Blood […] 4 hours later from a vein of tail and ketone bodies were measured as β-hydroxybutyrate according to the modified method of Williamson [D. H. Williamson et al.; Methods of Enzymatic Analysis, P454 (1968), Academic Press, New York]. The amount of ketone bodies was shown as a relative amount of β-hydroxybutyrate (percentage) to the amount of p-hydroxybutyrate in blood of control rats.

[2] = tested on: fatty acid degradation which depends on carnitine added (rat liver homogenates); assay: Inhibition of carnitine-dependent fatty acid degradation (14CO2 from 1-14C palmitic acid) in rat liver homogenate; type: biochemical, rat (SD, male)
Method: Then, the fatty acid degradation inhibiting activity of the compound (I), (III), (IV) was determined in accordance with the method described in P.75 "Metabolism of Lipids" which is Vol. 9 of "Seikagaku Jikken Koza" (Text of Biochemical Experiments)compiled by Tokyo Kagaku Dojin, published 1975, using rat liver homogenates. Thus, an SD strain rat (6 weeks of age, male) was fasted for one day and, then, bled to death. The liver was immediately excised and homogenized with 10 times (w/v) of a 0.25 M sucrose solution containing a 5 mM Tris-HCl buffer (pH 7.4), 0.1 mM EDTA and 1 mg/ml bovine serum albumin using a Teflon rod homogenizer. The homogenate was centrifuged at 820 ×g for 10 minutes and the supernatant was further centrifuged at 8,000 ×g for 10 minutes. The resultant pellets were suspended in the same sucrose solution as above to a concentration of 0.2 g wet liver weight/0.5 ml solution and 0.5 ml of the suspension was used as the enzyme solution in the reacrion. […] The inhibitory activity is shown as percentage of inhibitory activity to degradation activity of fatty acid facilitated by the addition of carnitine to that of not added of the compound.

[3] = Stability in aqueous solution; type: physicochemical; conditions: pH 3 to 9, 100° C., 10 minutes
[4] = Solubilities; type: physicochemical
[5] = concentration of drug 2 mM, R2 = --OH
[6] = in petroleum ether, hexane, diethyl ether, benzene, ethyl acetate, chloroform
[7] = in pyridine, acetone, dimethyl sulfoxide, dimethylformamide

Structure (SMILES)	relative amount of β-hydroxybutylate (%) [1]	Inhibition (%) ([2]; concentration of drug 0.2 mM)	Inhibition (%) [2, 5]	Inhibition (%) ([2]; concentration of drug 2 μM)	Inhibition (%) ([2]; concentration of drug 20 μM)	also measured
CN[C@H](CC(=O)[O-])C[N+](C)(C)C [--CH3, [(R)-2-methylammonio-3-carboxypropyl]trimethylammonium . dichloride]	19.9%	89%	100%	–	–	–
CCCC(=O)N[C@H](CC(=O)[O-])C[N+](C)(C)C [--CO(CH2)2 CH3, [(R)-3-carboxy-2-n-butyrylaminopropyl]trimethylammonium picrate]	–	–	50%	–	–	–
CCCCCCCCCCCCCC(=O)N[C@H](CC(=O)[O-])C[N+](C)(C)C [--CO(CH2)12 CH3, (R)-3-myristoylamino-4-trimethylammoniobutyrate]	7.9%	–	–	–	–	–
CCCCCCCCCCCCCCCC(=O)N[C@H](CC(=O)[O-])C[N+](C)(C)C [--CO(CH2)14 CH3, (R)-3-palmitoylamino-4-trimethylammoniobutyrate]	6.7%	–	–	100%	100%	–
CCC(=O)N[C@H](CC(=O)O)C[N+](C)(C)C.[Cl-] [--COCH2 CH3, [(R)-3-carboxy-2-propionylaminopropyl]trimethylammonium chloride]	–	–	44%	–	–	–
CC(=O)N[C@@H](CC(=O)O)C[N+](C)(C)C.[Cl-] [--COCH3 (D-), [(S)-2-acetylamino-3-carboxypropyl]trimethylammonium chloride]	–	2%	28%	–	–	–
C[N+](C)(C)C[C@@H](CC(=O)[O-])NC=O [--COH, [(R)-3-carboxy-2-formylaminopropyl]trimethylammonium picrate]	75.7%	53%	84%	–	–	–
C[N+](C)(C)C[C@@H](CC(=O)O)NC(N)=O.[Cl-] [--CONH2, [(R)-3-carboxy-2-carbamoylaminopropyl]trimethylammonium chloride]	63.2%	34%	72%	–	–	–
C[N+](C)(C)C[C@@H](CC(=O)[O-])NC(=O)OCc1ccccc1 [--COOCH2 C6 H5, (R)-3-benzyloxycarbonylamino-4-trimethylammoniobutyrate]	19.7%	85%	98%	–	–	–
C[N+](C)(C)C[C@@H](N)CC(=O)O.Cl.[Cl-] [--H (D-), [(S)-2-ammonio-3-carboxypropyl]trimethylammonium dichloride]	–	11%	36%	–	–	–
C[N+](C)(C)C[C@H](N)CC(N)=O [--NH2, [(R)-2-ammonio-3-carbamoylpropyl]trimethylammonium dipicrate]	–	67%	–	10%	27%	–
CCCOC(=O)C[C@@H](N)C[N+](C)(C)C [--O(CH2)2 CH3, [(R)-2-ammonio-3-carbopropoxypropyl]trimethylammonium dipicrate]	–	–	–	41%	69%	–
CCOC(=O)C[C@@H](N)C[N+](C)(C)C [--OCH2 CH3, [(R)-2-ammonio-3-carboethoxypropyl]trimethylammonium monochloride monopicrate]	5.9%	–	–	37%	85%	–
COC(=O)C[C@@H](N)C[N+](C)(C)C [--OCH3, [(R)-2-ammonio-3-carbomethoxypropyl]trimethylammonium dipicrate]	–	–	–	26%	73%	–
CC(=O)N[C@H](CC(=O)[O-])C[N+](C)(C)C [FA-5859.hydrochloride]	–	–	–	–	–	Stability [3]: stable; Solubility ([4]; in ethanol, methanol): Soluble; Solubility [4, 6]: Insoluble; Solubility [4, 7]: Hardly soluble; Solubility ([4]; in water): Readily soluble
CC(=O)N[C@H](CC(=O)[O-])C[N+](C)(C)C [FA-5859]	–	–	–	–	–	Stability [3]: Stable; Solubility ([4]; in ethanol, methanol): Soluble; Solubility [4, 6]: Insoluble; Solubility [4, 7]: Hardly soluble; Solubility ([4]; in water): Readily soluble

Reference: patent US4767781A, “Derivatives of beta-amino-gamma-trimethylammonio-butyrate and their production and use” (Takeda Chemical Industries, Ltd., priority 1981, dated 1988)
